Results published in patent US20150231209A1, “STIMULATION OF OVARIAN FOLLICLE DEVELOPMENT AND OOCYTE MATURATION” (THE BOARD OF TRUSTEES OF THE LELAND STANFORD JUNIOR …, priority 2012, published 2015).

How the values were obtained:
[1] = system: ovarian grafts; experiment: Ovarian grafting under kidney capsule of FSH-treated hosts: graft weights and follicle counting; assay type: in vivo, mice; conditions: ovaries treated 30 min. with different concentrations, grafted 5 days, hosts treated daily with FSH
Protocol: FIG. 3. Additive effects of Hippo signaling disruption and Akt stimulation promoted secondary follicle growth. A) Secondary follicles are responsive to IVA treatment. Secondary follicles (115 um in diameter) were isolated from mice at day 10 of age and cultured in vitro with the standard IVA protocol (first day with bPV(hopic) at 3 mM and 740YP at 15 ug/ml, followed by one more day with 740YP alone), followed by treatment with daily FSH (100 ng/ml) for two more days (IVA+FSH). The control groups were either treatment with media alone for four days or treated with the IVA reagent for two days followed by media alone (IVA alone). B) Ovarian fragmentation and IVA treatment led to additive effects on ovarian weight gain and secondary follicle growth. Paired ovaries from mice at day 10 of age were fragmented into three pieces. Fragments from one side were treated with the IVA protocol (bpV(hopic) at 30 uM and 740YP at 150 ng/ml for one day, followed by one more day with 740YP only) whereas fragments from the contralateral side were incubated in media alone. Ovarian fragments were then allo-transplanted into kidney capsules of adult ovariectomized mice with hosts injected with FSH (daily at 1 IU/animal). Five 5 days later, ovarian grafts were retrieved, fixed and weighted. Left panel: graft weights; right panel: Follicle dynamics of grafted ovarian fragments. Percentages of follicles at different stages were determined based on serial sections of grafts. C, Follicle dynamics before and after grafting of intact and fragmented murine ovaries with or without treatment with Akt stimulators. Left: total follicle numbers, Right: follicle dynamics. n=4. Same letter symbols indicate significant differences (p<0.05). D-F. Vitrified human cortical strips were thawed and fragmented into cubes before treatment with Akt stimulators for 2 days followed by grafting into immune-deficient mice for 4 weeks. D. Cortical strips before grafting. Arrow: a secondary follicle, arrowheads: primordial/primary follicles. Scale bar, 100 μm. E. A kidney graft in situ (left) and after isolation (right), showing an antral follicle. F. Histology of two large antral follicles with the side view of one showing an oocyte at the germinal vesicle stage (arrow). Scale bar, 1 mm. Mean±SEM; * p<0.05.
FIG. 7. Pre-treatment with verteporfin and CCN2 antibodies suppressed fragmentation-induced ovarian growth. A, Pretreatment with verteporfin suppressed fragmentation-induced increases in CCN2, but not AMH, transcript levels. Juvenile mice were injected i.p. with verteporfin for 3 h before retrieving ovaries for fragmentation. At 4 h after incubation, transcript levels for CCN2 and AMH were determined by real-time RT-PCR. n=6-12. […] Ovaries from juvenile mice pre-injected with verteporf in for 3 h were fragmented and incubated for 1 h before grafting into FSH-treated hosts for 5 days followed by determination of graft weights. Numbers in parentheses are number of samples used. C, Follicle dynamics of intact and fragmented ovarian grafts from animals with or without verteporf in (VP) pretreatment. n=3-5. D, Incubation of fragmented ovaries with CCN2 antibodies suppressed ovarian weight increases. Paired ovaries were fragmented into 3 pieces followed by incubation with CCN2 antibodies or non-immune-IgG for 18 h before grafting for 5 days. Mean±SEM; *p<0.05.
Left upper panel: Paired ovaries from day 10 mice were treated with or without JASP (10 μM) for 30 min. before analyses of F- and G-actin content. Left lower panel: Real-time RT-PCR analyses of CCN2 transcript levels after 30 min. exposure to JASP. Right panel: Immunoblotting analyses of CCN2 protein levels after 30 min. treatment with JASP. Upper panel: Immunoblotting analyses. Lower panel: quantitative analyses of densitometric scanning data. Numbers in parentheses are number of samples used. * p<0.05. […]

[2] = system: CCN2; experiment: CCN2 transcript and protein levels of ovaries after JASP; assay type: cell-based; conditions: 30 min. exposure, ovaries from day 10 mice
Protocol: (§1) Left upper panel: Paired ovaries from day 10 mice were treated with or without JASP (10 μM) for 30 min. before analyses of F- and G-actin content. Left lower panel: Real-time RT-PCR analyses of CCN2 transcript levels after 30 min. exposure to JASP. Right panel: Immunoblotting analyses of CCN2 protein levels after 30 min. treatment with JASP. Upper panel: Immunoblotting analyses. Lower panel: quantitative analyses of densitometric scanning data. Numbers in parentheses are number of samples used. * p<0.05. […] Ovaries from day 10 mice were treated with or without different concentrations of JASP for 30 min. before grafting into adult hosts treated daily with FSH. Five days later, graft weights were determined.
Paired ovaries from CD-1 mice at different ages were excised in L-15 medium. One ovary from each animal was cut into 2-4 pieces, whereas the contralateral one remained intact. […]
Proteins from NIH3T3 cells or ovaries of mice at day 10 of age were extracted using M-PER Mammalian Protein Extraction Reagent (Thermo, Rockford, Ill.) containing a protease inhibitor cocktail (Thermo). […] Signals were developed using enhanced chemiluminescence (ECL Kit, GE Healthcare) and quantitated using a densitometer. […]

[3] = system: F-actin/G-actin; experiment: F-actin and G-actin content of ovaries after JASP; assay type: cell-based; conditions: 10 μM for 30 min., ovaries from day 10 mice
Protocol: as §1
Paired ovaries from CD-1 mice at different ages were excised in L-15 medium. One ovary from each animal was cut into 2-4 pieces, whereas the contralateral one remained intact. Ovaries were transferred to culture plate inserts (Millipore, Bedford, Mass.) and cultured in MEMa medium with 3 mg/ml BSA, 0.23 mM sodium pyruvate, 50 ug/ml vitamin C, 30 mIU/ml FSH, 50 mg/L streptomycin sulfate, and 75 mg/L penicillin G. After 30 min. of incubation, media were replaced and incubated for another 30 min. […]
Ratios of F-actin to G-actin in intact and fragmented ovaries were determined by F-actin/G-actin in vivo assay kit (Cytoskeleton, Denver, Colo.). […]

[4] = system: PTP; conditions: read-out: IC50, PTP inhibitor; cited from earlier work

Row | Compound | weights of ovarian grafts [1] | CCN2 expression (transcript and protein) [2] | actin polymerization (F- and G-actin content) [3] | IC50 [4]
1 | C/C1=C\[C@H](C)C[C@H](C)OC(=O)C[C@H](c2ccc(O)cc2)NC(=O)[C@@H](Cc2c(Br)[nH]c3ccccc23)N(C)C(=O)[C@H](C)NC(=O)[C@@H](C)C1 [JASP, jasplakinolide] | increased weights of ovarian grafts | increased | increased actin polymerization | –
2 | monoperoxo(picolinato)oxovanadate(V) | – | – | – | 18 µM
